Experimental data taken from patent US11407715B2, “Substituted indoline derivatives as dengue viral replication inhibitors” (JANSSEN PHARMACEUTICALS, INC., priority 2017, dated 2022).

Key:
[1] = test system: DENV-2 16681 strain; experiment: microbe, parasite or virus in culture; type: cell-based, Dengue virus; settings: for EC50: DENV-2 16681 eGFP, Vero cells, MOI 0.5, 3 days; for SI: SI=CC50/EC50, DENV-2 antiviral assay
[2] = test system: DENV-1 strain TC974#666; experiment: Tetravalent RT-qPCR assay, serotype 1; type: cell-based, Dengue virus; settings: RT-qPCR serotype 1 TC974#666, Vero cells
Experimental: (§1) The antiviral activity of the compounds of the invention was tested against DENV-1 strain TC974#666 (NCPV), DENV-2 strain 16681, DENV-3 strain H87 (NCPV) and DENV-4 strain H241 (NCPV) in a RT-qPCR assay. Therefore, Vero cells were infected with either DENV-1, or -2, or -3, or -4 in the presence or absence of test compounds. At day 3 post-infection, the cells were lysed and cell lysates were used to prepare cDNA of both a viral target (the 3′UTR of DENV; Table 2) and a cellular reference gene (β-actin, Table 2). Subsequently, a duplex real time PCR was performed on a Lightcycler480 instrument. The generated Cp value is inversely proportional to the amount of RNA expression of these targets. Inhibition of DENV replication by a test compound results in a shift of Cp's for the 3′UTR gene. On the other hand, if a test compound is toxic to the cells, a similar effect on β-actin expression will be observed. The comparative ΔΔCp method is used to calculate ECs50, which is based on the relative gene expression of the target gene (3′UTR) normalized with the cellular housekeeping gene (β-actin). In addition, CC50 values are determined based on the Cp values acquired for the housekeeping gene β-actin.
(§2) The culture medium consisted of minimal essential medium supplemented with 2% of heat-inactivated fetal calf serum, 0.04% gentamycin (50 mg/mL) and 2 mM of L-glutamine. Vero cells, obtained from ECACC, were suspended in culture medium and 75 μL/well was added in 96-well plates (10000 cells/well), which already contain the antiviral compounds. […] In addition, each plate contains wells which are assigned as virus controls (containing cells and virus in the absence of compound) and cell controls (containing cells in the absence of virus and compound). Once the cells were added in the plates, the plates were incubated in a fully humidified incubator (37° C., 5% CO2) until the next day. Dengue viruses serotype-1, 2, 3 and 4 were diluted in order to obtain a Cp of ˜22-24 in the assay. Therefore, 25 μL of virus suspension was added to all the wells containing test compound and to the wells assigned as virus control. In parallel, 25 μL of culture medium was added to the cell controls. Next, the plates were incubated for 3 days in a fully humidified incubator (37° C., 5% CO2). After 3 days, the supernatant was removed from the wells and the cells were washed twice with ice-cold PBS (˜100 μL). The cell pellets within the 96-well plates were stored at −80° C. for at least 1 day. Next, RNA was extracted using the Cells-to-CT™ lysis kit, according to the manufacturer's guideline (Life Technologies). The cell lysates can be stored at −80C or immediately used in the reverse transcription step.
(§3) In preparation of the reverse transcription step, mix A (table 3A) was prepared and 7.57 μL/well was dispensed in a 96-well plate. After addition of 5 μL of the cell lysates, a five minute denaturation step at 75° C. was performed (table 3B). Afterwards, 7.43 μL of mix B was added (table 3C) and the reverse transcription step was initiated (table 3D) to generate cDNA.
(§4) Finally, a RT-qPCR mix was prepared, mix C (table 4A), and 22.02 μL/well was dispensed in 96-well LightCycler qPCR plates to which 3 μL of cDNA was added and the qPCR was performed according to the conditions in table 4B on a LightCycler 480.
(§5) Using the LightCycler software and an in-house LIMS system, dose response curves for each compound were calculated and the half maximal effective concentration (EC50) and the half maximal cytotoxic concentration (CC50) were determined (Tables 5-8).

[3] = test system: DENV-2 strain 16681; experiment: Tetravalent RT-qPCR assay, serotype 2; type: cell-based, Dengue virus; settings: RT-qPCR serotype 2 16681, Vero cells
Experimental: as §1, §2, §3, §4, §5

[4] = test system: DENV-3 strain H87; experiment: Tetravalent RT-qPCR assay, serotype 3; type: cell-based, Dengue virus; settings: RT-qPCR serotype 3 H87, Vero cells
Experimental: as §1, §2, §3, §4, §5

[5] = test system: DENV-4 strain H241; experiment: Tetravalent RT-qPCR assay, serotype 4; type: cell-based, Dengue virus; settings: RT-qPCR serotype 4 H241, Vero cells
Experimental: as §1, §2, §3, §4, §5

[6] = test system: Vero cells; settings: African green monkey
[7] = in vitro; settings: African green monkey

Row | Compound | EC50 [1] | SI [1] | EC50 [2] | EC50 [3] | EC50 [4] | EC50 [5] | CC50 [6] | EC50 ([2]; Dengue virus, DENV1, Vero) | EC50 ([3]; Dengue virus, DENV2, Vero) | EC50 ([4]; Dengue virus, DENV3, Vero) | EC50 ([5]; Dengue virus, DENV4, Vero) | CC50 [7] | EC50 ([1]; Dengue virus, DENV2, Vero, 72 h)
1 | COc1cc(NC(C(=O)N2CCc3ccc(OC(F)(F)F)cc32)c2ccc(Cl)cc2)cc(OCCC(C)C(=O)O)c1 (single isomer, unassigned) [Compound 1D] | 0.23 nM | 57700 | 0.27 nM | 0.23 nM | 3.4 nM | 24 nM | 12000 nM | – | – | – | – | – | –
2 | COc1cc(NC(C(=O)N2CCc3ccc(OC(F)(F)F)cc32)c2ccc(Cl)cc2)cc(OCC(C)CC(=O)O)c1 (single isomer, unassigned) [Compound 4D] | 0.17 nM | 81200 | 0.23 nM | 0.13 nM | 2.3 nM | 26 nM | 13000 nM | – | – | – | – | – | –
3 | COc1cc(NC(C(=O)N2CCc3ccc(OC(F)(F)F)cc32)c2ccc(Cl)cc2)cc(OC23CC(C(=O)O)(C2)C3)c1 (single isomer, unassigned) [Compound 9B] | 0.39 nM | 32500 | – | – | – | – | 12000 nM | 0.81 nM | 0.5 nM | 8 nM | 36 nM | – | –
4 | COc1cc(NC(C(=O)N2CCc3ccc(OC(F)(F)F)cc32)c2ccc(Cl)cc2)cc(OCCC(=O)O)c1 (single isomer, unassigned) [Compound 12B] | 0.69 nM | 21500 | – | – | – | – | 14000 nM | 0.47 nM | 0.53 nM | 4.7 nM | 39 nM | – | –
5 | COc1cc(CCCC(=O)O)cc(NC(C(=O)N2CCc3ccc(OC(F)(F)F)cc32)c2ccc(Cl)cc2)c1 (single isomer, unassigned) [Compound 15B] | 0.45 nM | 24900 | – | – | – | – | 12000 nM | 0.24 nM | 0.23 nM | 2.8 nM | 35 nM | – | –
6 | COc1cc(NC(C(=O)N2CCc3ccc(OC(F)(F)F)cc32)c2ccc(Cl)cc2OC)cc(OCCC(C)C(=O)O)c1 (single isomer, unassigned) [Compound 17C] | 0.23 nM | 39300 | – | – | – | – | 12000 nM | 0.19 nM | 0.11 nM | 3.6 nM | 16 nM | – | –
7 | COc1cc(NC(C(=O)N2CCc3ccc(OC(F)(F)F)cc32)c2ccc(Cl)cc2OC)cc(OCCC(C)C(=O)O)c1 (single isomer, unassigned) [Compound 17D] | 0.12 nM | >9720 | 0.21 nM | 0.1 nM | 2.7 nM | 15 nM | 14000 nM | – | – | – | – | – | –
8 | COc1cc(NC(C(=O)N2CCc3ccc(OC(F)(F)F)cc32)c2ccc(Cl)cc2OC)cc(OCCC(C)(C)C(=O)O)c1 (single isomer, unassigned) [Compound 18B] | 0.28 nM | 62700 | – | – | – | – | 12000 nM | 0.55 nM | 0.34 nM | 4.3 nM | 33 nM | – | –
9 | COc1cc(NC(C(=O)N2CCc3cc(OC)c(C(F)(F)F)cc32)c2ccc(Cl)cc2)cc(OCCC(C)(C)C(=O)O)c1 (single isomer, unassigned) [Compound 21B] | 0.32 nM | 45200 | – | – | – | – | 12000 nM | 1 nM | 0.16 nM | 6.5 nM | 48 nM | – | –
10 | COc1cc(NC(C(=O)N2CCc3cc(F)c(OC(F)(F)F)cc32)c2ccc(Cl)cc2)cc(OC2CC(C(=O)O)C2)c1 (single isomer, unassigned) [Compound 27B] | 0.022 nM | >205482 | – | – | – | – | 13000 nM | 0.013 nM | 0.014 nM | 0.091 nM | 0.81 nM | – | –
11 | COc1cc(NC(C(=O)N2CCc3cc(OC)c(C(F)(F)F)cc32)c2ccc(Cl)cc2)cc(OCC2CC2C(=O)O)c1 (stereo not shown) [Compound 22AA] | 16 nM | 798 | – | – | – | – | – | – | – | – | – | 13000 nM | –
12 | COc1cc(NC(C(=O)N2CCc3cc(OC)c(C(F)(F)F)cc32)c2ccc(Cl)cc2)cc(O[C@H]2C[C@@H](C(=O)O)C2)c1 (stereo partly shown) [Compound 23, (1s,3s)-3-(3-((1-(4-chlorophenyl)-2-(5-methoxy-6-(trifluoromethyl)indolin-1-yl)-2-oxoethyl)amino)-5-methoxyphenoxy)cyclobutene-carboxylic Acid] | – | 116424 | – | – | – | – | – | – | – | – | – | 12000 nM | 0.093 nM
13 | COc1cc(NC(C(=O)N2CCc3cc(OC)c(C(F)(F)F)cc32)c2ccc(Cl)cc2)cc(OC2CC(C(=O)O)C2)c1 (stereo not shown) [Compound 23A] | 34 nM | 321 | – | – | – | – | – | – | – | – | – | 11000 nM | –
14 | COc1cc(NC(C(=O)N2CCc3cc(OC)c(C(F)(F)F)cc32)c2ccc(Cl)cc2)cc(OCC2CC(C(=O)O)C2)c1 (stereo not shown) [Compound 24, (1s,3s)-3-((3-((1-(4-chlorophenyl)-2-(5-methoxy-6-(trifluoromethyl)indolin-1-yl)-2-oxoethyl)amino)-5-methoxyphenoxy)methyl)-cyclobutanecarboxylic Acid] | 0.64 nM | 18300 | – | – | – | – | – | – | – | – | – | 12000 nM | –
15 | COc1cc(NC(C(=O)N2CCc3cc(F)c(OC(F)(F)F)cc32)c2ccc(Cl)cc2)cc(OC2CC(C(=O)O)C2)c1 (stereo not shown) [Compound 27, ((1s,3s)-3-(3-((1-(4-chlorophenyl)-2-(5-fluoro-6-(trifluoromethoxy)indolin-1-yl)-2-oxoethyl)amino)-5-methoxyphenoxy)cyclobutene-carboxylic Acid] | 0.067 nM | 149640 | – | – | – | – | – | – | – | – | – | 13000 nM | –
16 | COc1cc(NC(C(=O)N2CCc3cc(OC)c(Cl)cc32)c2ccc(Cl)cc2)cc(OC2CC(C(=O)O)C2)c1 (stereo not shown) [Compound 32, (1s,3s)-3-(3-((2-(6-chloro-5-methoxyindolin-1-yl)-1-(4-chlorophenyl)-2-oxoethyl)amino)-5-methoxyphenoxy)cyclobutanecarboxylic Acid] | 0.13 nM | 130935 | – | – | – | – | – | – | – | – | – | 15000 nM | –
